The test system of one series is PAM1723 cells. Put plainly: EtBr uptake (proton gradient disruption). In kind it is cell-based, Pseudomonas aeruginosa. Conditions: CCCP 50 μg/ml for 15 minutes, pentamidine 80 μg/ml. The procedure:
A proton gradient is necessary for efflux pump activity. Accordingly, compounds that are capable of proton gradient disruption will appear as efflux inhibitors in accumulation assays. This possibility was tested for pentamidine. EtBr is a substrate of the MexAB-OprM efflux pump from P. aeruginosa as evident from the differential rates of its uptake in PAM 1723 and PAM 1626, MexAB-OprM overexpressing or lacking strains, respectively. CCCP is a well-known protonophore, which rapidly dissipates the proton gradient.

For series [1], the system named is P. aeruginosa PAM2466 (MexAB-OprM, MexXY-OprM). Put plainly: microbe, parasite or virus in culture. Conditions: Pseudomonas aeruginosa. The format is cell-based, Pseudomonas aeruginosa. The procedure: (§1) A set of strains that simultaneously over-expressed pairs or triplicates of pumps, e.g. PAM2302 and PAM2303 was tested. Simultaneous over-expression of efflux pumps has been recently detected in clinical strains.

The subject of series [2] is P. aeruginosa PAM2302 (MexAB-OprM, MexCD-OprJ, MexEF-OprN). Put plainly: microbe, parasite or virus in culture. Conditions: Pseudomonas aeruginosa. The format is cell-based, Pseudomonas aeruginosa. The procedure:
as §1

The test system of series [3] is P. aeruginosa PAM2282 (MexAB-OprM, MexEF-OprN). Put plainly: microbe, parasite or virus in culture. The format is cell-based, Pseudomonas aeruginosa. Conditions: Pseudomonas aeruginosa. The method, then: as §1
Series [4] concerns P. aeruginosa PAM1438 (MexAB-OprM, MexCD-OprJ). Put plainly: microbe, parasite or virus in culture. In kind it is cell-based, Pseudomonas aeruginosa. Conditions: Pseudomonas aeruginosa. The procedure:
as §1

For series [5], the system named is P. aeruginosa PAM2281 (MexAB-OprM, MexEF-OprN). Put plainly: microbe, parasite or virus in culture. The format is cell-based, Pseudomonas aeruginosa. Conditions: Pseudomonas aeruginosa. The method, then:
as §1

In series [6] the test system is P. aeruginosa PAM1482 (MexCD-OprJ; gyrA (Asp87Tyr)). Put plainly: microbe, parasite or virus in culture. In kind it is cell-based, Pseudomonas aeruginosa. Conditions: Pseudomonas aeruginosa. The text has this: (§2) In addition to increased efflux, resistance to fluoroquinolones may be due to target mutations (gyrase and topoisimerase IV) or due to combination of these two resistance mechanisms in a single bacterial cell.

Series [7] relates to P. aeruginosa PAM1570 (MexEF-OprN; gyrA (Thr83Ile)). Put plainly: microbe, parasite or virus in culture. The format is cell-based, Pseudomonas aeruginosa. Conditions: Pseudomonas aeruginosa.
Excerpt: as §2

Series [8] has as its system P. aeruginosa PAM1569 (MexCD-OprJ; gyrA (Thr83Ile)). Put plainly: microbe, parasite or virus in culture. Conditions: Pseudomonas aeruginosa. The format is cell-based, Pseudomonas aeruginosa.
Excerpt: as §2

In series [9] the test system is P. aeruginosa PAM1033 (MexCD-OprJ). Put plainly: microbe, parasite or virus in culture. In kind it is cell-based, Pseudomonas aeruginosa. The following applies: Pseudomonas aeruginosa.
Excerpt: as §2

Series [10] has as its system P. aeruginosa PAM1020 (pump status none; target mutation none). Put plainly: microbe, parasite or virus in culture. The format is cell-based, Pseudomonas aeruginosa. Conditions: Pseudomonas aeruginosa.
Excerpt: as §2

Series [11] deals with P. aeruginosa PAM1034 (MexEF-OprN). Put plainly: microbe, parasite or virus in culture. In kind it is cell-based, Pseudomonas aeruginosa. The following applies: Pseudomonas aeruginosa.
Excerpt: as §2

Series [12] has as its system P. aeruginosa PAM1032 (MexAB-OprM). Put plainly: microbe, parasite or virus in culture. In kind it is cell-based, Pseudomonas aeruginosa. Conditions: Pseudomonas aeruginosa.
Excerpt: as §2

Series [13] relates to P. aeruginosa PAM1548 (pump status none; gyrA (Thr83Ile)). Put plainly: microbe, parasite or virus in culture. Conditions: Pseudomonas aeruginosa. In kind it is cell-based, Pseudomonas aeruginosa.
Excerpt: as §2

Series [14] concerns P. aeruginosa PAM1491 (MexEF-OprN; gyrA (Asp87Tyr)). Put plainly: microbe, parasite or virus in culture. The following applies: Pseudomonas aeruginosa. The format is cell-based, Pseudomonas aeruginosa.
Excerpt: as §2

Series [15] relates to P. aeruginosa PAM1154 (MexAB-OprM deleted). In kind it is cell-based, Pseudomonas aeruginosa.
The test system of series [16] is P. aeruginosa PAM1723 (MexAB-OprM overexpressed). The format is cell-based, Pseudomonas aeruginosa. The following applies: for MIC, No Pentamidine / MIC, Pentamidine (40 μg/ml): PAM1723 (MexAB-OprM overexpressed); for MIC, Pentamidine (40 μg/ml): in the presence of pentamidine 40 μg/ml.
The subject of series [17] is 108 recent clinical isolates of P. aeruginosa obtained from cystic fibrosis patients. Put plainly: Susceptibility of cystic fibrosis clinical isolates (broth-micro-dilution, NCCLS). In kind it is cell-based, Pseudomonas aeruginosa. Conditions: 108 CF isolates; combinations with 20 μg/ml of pentamidine.
For series [18], the system named is P. aeruginosa PAM1723 (nalB, overexpressing MexAB-OprM). Put plainly: microbe, parasite or virus in culture. The format is cell-based, Pseudomonas aeruginosa. Conditions: Pseudomonas aeruginosa, read-out: Levofloxacin MIC in the presence of inhibitor, PAM1723; inhibitor 0 μg/ml. The method, then: Stock solutions were further diluted, according to the needs of a particular assay, in Mueller Hinton Broth (MHB). Stock solution was stored at −80° C.
The checkerboard assay was performed in microtiter plates. […] The result of these manipulations is that each well of the microtiter plate contains a unique combination of concentrations of the two agents. The assay was performed in MHB with a final bacterial inoculum of 5×10^5 CFU/ml (from an early-log phase culture). Microtiter plates were incubated during 20 h at 35° C. and were read using a microtiterplate reader (Molecular Devices) at 650 nm as well as visual observation using a microtiter plate reading mirror.
The test organisms used was PAM1020, which is a wild type strain of P. aeruginosa expressing the basal level of MexAB-OprM, as well as PAM1723, PAM1738, and PAM1753, overexpressing the MexAB-OprM, MexCD-OprJ, and MexEF-OprN pump, respectively.
Efflux pump inhibitory activity of several commercially available diamidine analogs was evaluated using the checkerboard assay of Example 1 against the strain of P. aeruginosa overexpressing the MexAB-OprM efflux pump.

The test system of series [19] is outer membrane of P. aeruginosa strain PAM2005. Conditions: Mg2+ free buffer, nitrocefin 64 μg/ml.
The conditions of series [20]: intravenous infusion; cited from earlier work.
Setting [21] is: read-out: Ciprofloxacin MIC w/o pentamidine.
[22] abbreviates: read-out: Levofloxacin MIC w/o pentamidine.

Values after ≈ are worked out from the molar mass of the structure shown. Where two headings read alike, the source gives them in different places. Where a SMILES comes first, the peptide text is derived from it. Bridges are numbered along the chain shown (N, C = ends). [ ]: non-standard residue; d: D form. Dab = NCC[C@H](N)C(=O)O

`N#CC(C#N)=NNc1cccc(Cl)c1` [CCCP]: the EtBr uptake entry in the series on PAM1723 cells was “dramatic increase of EtBr uptake”.
In the case of `O=C(O)c1cn(C2CC2)c2cc(N3CCNCC3)c(F)cc2c1=O` [Ciprofloxacin, ciprofloxacin], the MIC worked out at 0.5 µg/mL (≈ 1.51 µM) in series [1] (setting [21]); 2 µg/mL (≈ 6.04 µM) in [2] (setting [21]); 2 µg/mL (≈ 6.04 µM) in series [3] (setting [21]); 16 µg/mL (≈ 48.3 µM) in series [4] (setting [21]); 8 µg/mL (≈ 24.1 µM) in [5] (setting [21]); 8 µg/mL in [6] (setting [21]). The MIC in [7] (setting [21]) amounted to 16 µg/mL; in series [8] (setting [21]) it was 16 µg/mL; in series [9] (setting [21]), 1 µg/mL; in [10] (setting [21]) it was 0.06 µg/mL; in series [11] (setting [21]), 1 µg/mL; in series [12] (setting [21]), 0.5 µg/mL. In addition, the MIC came out at 2 µg/mL in series [13] (setting [21]) and 8 µg/mL in series [14] (setting [21]). Further, the MIC, No Pentamidine in [15] is 0.008 µg/mL (≈ 0.0241 µM); in series [16] it was 0.25 µg/mL (≈ 0.754 µM). Also, the “MIC, Pentamidine (40 μg/ml)” value in [16] came out at 0.03. Further, the “decrease of the MIC by pentamidine” value in series [16] (PAM1723, pentamidine 40 μg/ml) was 8 fold.
Consider `C[C@H]1COc2c(N3CCN(C)CC3)c(F)cc3c(=O)c(C(=O)O)cn1c23` [Levofloxacin, levofloxacin], for which the MIC was determined as 2 µg/mL (≈ 5.53 µM) in series [1] (setting [22]); 8 µg/mL (≈ 22.1 µM) in series [2] (setting [22]); 8 µg/mL (≈ 22.1 µM) in series [3] (setting [22]); 4 µg/mL (≈ 11.1 µM) in series [4] (setting [22]); 8 µg/mL (≈ 22.1 µM) in series [5] (setting [22]); 16 µg/mL in series [6] (setting [22]). The MIC is 32 µg/mL in series [7] (setting [22]); 32 µg/mL in series [8] (setting [22]); 4 µg/mL in series [9] (setting [22]); 0.25 µg/mL in series [10] (setting [22]); 4 µg/mL in series [11] (setting [22]); 2 µg/mL in series [12] (setting [22]). The MIC in [13] (setting [22]) was determined as 2 µg/mL; in [14] (setting [22]), 32 µg/mL; in series [18], 2 µg/mL. In [17], the MIC50 turned out to be 2 µg/mL. For the same molecule, the MIC90 in [17] was determined as 8 µg/mL.
As for `CC(C)C[C@@H]1NC(=O)[C@@H](Cc2ccccc2)NC(=O)[C@H](CCN)NC(=O)[C@@H](NC(=O)[C@H](CCN)NC(=O)[C@@H](N)[C@@H](C)O)CCNC(=O)[C@H]([C@@H](C)O)NC(=O)[C@H](CCN)NC(=O)[C@H](CCN)NC1=O` [PMBN] (H-T[Dab][Dab][Dab][dF]L[Dab][Dab]T; lactam 3-C; N-terminus assumed), the “IC50, permeabilization of the outer membrane” value in [19] was below 2 µg/mL.
With `NC[C@H]1O[C@H](O[C@H]2[C@H](O)[C@@H](O[C@H]3O[C@H](CO)[C@@H](O)[C@H](N)[C@H]3O)[C@H](N)C[C@@H]2N)[C@H](N)C[C@@H]1O` [Tb, tobramycin], the MIC, No Pentamidine in series [15] is 0.03 µg/mL (≈ 0.0642 µM). Further, in series [16], the “decrease of the MIC by pentamidine” value is “almost no effect”; the MIC, No Pentamidine stood at 0.06 µg/mL (≈ 0.128 µM); the “MIC, Pentamidine (40 μg/ml)” value was determined as 0.03.
On to `N=C(N)c1ccc(OCCCCCOc2ccc(C(=N)N)cc2)cc1` [pentamidine isethionate, 4,4′-diamidino-diphenoxypentane di(β-hydroxyethanesulfonate)], for which the “plasma levels during the first two hours following an intravenous infusion” value in series [20] is given as “one-twentieth of peak levels”.

The values above are taken from patent publication US7947741B2, “Use and administration of bacterial efflux pump inhibitors” (Mpex Pharmaceuticals, Inc., priority 2004, dated 2011).
